According to patent US12606528B2, “Methods and materials for inhibiting NF-kB activity” (University of Pittsburgh - Of the Commonwealth System of …, priority 2019, dated 2026):
Like-named read-outs stand apart in the source and are kept apart here.

Key:
TNF release = test: TNF assay: TNF release from LPS-stimulated human PBMCs (TNF ELISA); assay type: cell-based; conditions: PBMC, read-out: IC50 (TNF assay)
In short: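 Human PBMCs at 10k/well pretreated with compound dilutions 2 h, then stimulated with LPS (10 ng/mL) for 18 h. TNF in supernatants quantified by ELISA; IC50 for inhibition of TNF release fitted from concentration–response.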

NF-κB = NF-κB assay: THP1-NF-κB-LUC cells, LPS-stimulated secreted luciferase; assay type: cell-based; conditions: THP1-NF-κB-LUC cells, read-out: IC50 (NF-κB assay)
In short: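 THP1-NF-κB-LUC cells (25k/well) were pretreated with compounds for 2 h, then stimulated with LPS (10 ng/mL) for 18 h. Secreted luciferase was measured and normalized to vehicle, and IC50 was fitted from the concentration series.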

[1] = LPS-stimulated human PBMCs, TNF ELISA
[2] = human PBMCs, compounds 2 hours before LPS (10 ng/ml) for 18 hours, supernatant TNF ELISA
[3] = compounds 2 hours before LPS (10 ng/mL) for 18 hours, secreted luciferase

SMILES | IC50 (TNF release; [1]) | IC50 (NF-κB; LPS-stimulated) | IC50 (TNF release; [2]) | IC50 (NF-κB; [3])
CS(=O)(=O)c1cncc(-c2ccc3nc(-c4ccc(F)cc4)c(-c4ccc(F)cc4)nc3c2)c1 [BC19243] | > 10000 nM | 100 to 1000 nM |  | 
CN1CCOc2cc(-c3ccc4nc(-c5ccc(F)cc5)c(-c5ccc(F)cc5)nc4c3)ccc21 [BC19244] | > 10000 nM | > 10000 nM |  | 
Fc1ccc(-c2nc3ccc(-c4ccncc4)cc3nc2-c2ccc(F)cc2)cc1 [BC19245] | > 10000 nM | 1000 to 10000 nM |  | 
CCc1nnc(-c2ccc3nc(-c4ccc(F)cc4)c(-c4ccc(F)cc4)nc3c2)o1 [BC19246] | > 10000 nM | 1000 to 10000 nM |  | 
CCCc1nnc(-c2ccc3nc(-c4ccc(F)cc4)c(-c4ccc(F)cc4)nc3c2)[nH]1 [BC19247] | > 10000 nM | 1000 to 10000 nM |  | 
CS(=O)(=O)c1ccc(-c2nc3ccc(-c4ncco4)cc3nc2-c2ccc(F)cc2)s1 [BC19248] | > 10000 nM | > 10000 nM |  | 
Cc1cnc(-c2ccc3nc(-c4ccc(F)cc4)c(-c4cccs4)nc3c2)o1 [BC19249] | > 10000 nM | 1000 to 10000 nM |  | 
Fc1ccc(-c2nc3ccc(-c4nnco4)cc3nc2-c2ccc(F)cc2)cc1 [BC19250] | > 10000 nM | < 100 nM |  | 
O=C(Nc1ccc2nc(-c3ccc(F)cc3)c(-c3ccc(F)cc3)nc2c1)C1CCNCC1 [BC19251] | 1000 to 10000 nM | < 100 nM |  | 
O=c1c(S(=O)(=O)c2ccc(F)c(F)c2)c[nH]c2c(F)ccc(F)c12 [BC19252] |  |  | > 10000 nM | < 100 nM
Cc1ccc(F)c2[nH]cc(S(=O)(=O)c3ccc(F)c(F)c3)c(=O)c12 [BC19253] |  |  | > 10000 nM | < 100 nM
Cc1ccc(Cl)c2c(=O)c(S(=O)(=O)c3ccc(F)c(F)c3)c[nH]c12 [BC19254] |  |  | > 10000 nM | < 100 nM
COc1ccc(OC)c2c(=O)c(S(=O)(=O)c3ccc(F)c(F)c3)c[nH]c12 [BC19255] |  |  | > 10000 nM | 1000 to 10000 nM
O=c1c(S(=O)(=O)c2ccc(F)c(F)c2)c(O)[nH]c2ncccc12 [BC19256] |  |  | > 10000 nM | 1000 to 10000 nM
O=c1c(S(=O)(=O)c2ccc(F)c(F)c2)cnc2ccccn12 [BC19257] |  |  | > 10000 nM | > 10000 nM
Cc1ccc(S(=O)(=O)c2c(O)[nH]c3ncccc3c2=O)cc1 [BC19258] |  |  | > 10000 nM | 1000 to 10000 nM
O=c1c(S(=O)(=O)c2ccc(Cl)cc2)c(O)[nH]c2ncccc12 [BC19259] |  |  | > 10000 nM | 1000 to 10000 nM

SMILES | IC50 (TNF release; [1]) | IC50 (NF-κB; LPS-stimulated) | IC50 (TNF release; [2]) | IC50 (NF-κB; [3])
Cc1ccc(S(=O)(=O)c2nc(-c3ccccc3)oc2S(C)(=O)=O)cc1 [BC19260] | < 100 nM | < 100 nM |  | 
CS(=O)(=O)c1oc(-c2ccccc2)nc1S(=O)(=O)c1cccc(F)c1 [BC19261] | > 10000 nM | < 100 nM |  | 
CS(=O)(=O)c1oc(-c2ccccc2)nc1S(=O)(=O)c1ccc(F)c(F)c1 [BC19262] | < 100 nM | 100 to 1000 nM |  | 
Cc1ccc(S(=O)(=O)c2nc(-c3ccccc3)oc2S(=O)(=O)C(C)C)cc1 [BC19263] | 100 to 1000 nM | 100 to 1000 nM |  | 
CCCS(=O)(=O)c1oc(-c2ccccc2)nc1S(=O)(=O)c1ccc(C)cc1 [BC19264] | 100 to 1000 nM | < 100 nM |  | 
Cc1ccc(S(=O)(=O)c2nc(-c3ccccc3)oc2S(=O)(=O)CC2CC2)cc1 [BC19265] | 100 to 1000 nM | < 100 nM |  | 
COCCS(=O)(=O)c1oc(-c2ccccc2)nc1S(=O)(=O)c1ccc(C)cc1 [BC19266] | < 100 nM | < 100 nM |  | 
Cc1ccc(S(=O)(=O)c2nc(-c3ccccc3)oc2S(=O)(=O)C2CCCCC2)cc1 [BC19267] | 100 to 1000 nM | < 100 nM |  | 
CCC[S+]([O-])c1oc(-c2ccccc2)nc1S(=O)(=O)c1cccc(F)c1 (stereo not shown) [BC19268] | < 100 nM | 100 to 1000 nM |  | 
CC(C)S(=O)(=O)c1oc(-c2ccccc2)nc1S(=O)(=O)c1cccc(F)c1 [BC19269] | < 100 nM | 100 to 1000 nM |  | 
CC(C)CS(=O)(=O)c1oc(-c2ccccc2)nc1S(=O)(=O)c1cccc(F)c1 [BC19270] | < 100 nM | < 100 nM |  | 
O=S(=O)(CC1CC1)c1oc(-c2ccccc2)nc1S(=O)(=O)c1cccc(F)c1 [BC19271] | < 100 nM | 100 to 1000 nM |  | 
COCC[S+]([O-])c1oc(-c2ccccc2)nc1S(=O)(=O)c1cccc(F)c1 (stereo not shown) [BC19272] | < 100 nM | < 100 nM |  | 
CCCS(=O)(=O)c1oc(-c2ccccc2)nc1S(=O)(=O)c1ccc(F)c(F)c1 [BC19273] | 100 to 1000 nM | 100 to 1000 nM |  | 
CC(C)S(=O)(=O)c1oc(-c2ccccc2)nc1S(=O)(=O)c1ccc(F)c(F)c1 [BC19274] | 100 to 1000 nM | < 100 nM |  | 
CC(C)CS(=O)(=O)c1oc(-c2ccccc2)nc1S(=O)(=O)c1ccc(F)c(F)c1 [BC19275] | < 100 nM | < 100 nM |  | 
COCCS(=O)(=O)c1oc(-c2ccccc2)nc1S(=O)(=O)c1ccc(F)c(F)c1 [BC19276] | < 100 nM | 100 to 1000 nM |  | 

Results, then the compound that gave them:

IC50 (TNF release; [1]) | IC50 (NF-κB; LPS-stimulated) | IC50 (TNF release; [2]) | IC50 (NF-κB; [3]) | SMILES
100 to 1000 nM | < 100 nM |  |  | O=S(=O)(c1ccc(F)c(F)c1)c1nc(-c2ccccc2)oc1S(=O)(=O)C1CCCCC1 [BC19277]
< 100 nM | < 100 nM |  |  | CC(C)CS(=O)(=O)c1oc(-c2ccccc2)nc1S(=O)(=O)c1ccc(Cl)cc1 [BC19278]
100 to 1000 nM | 100 to 1000 nM |  |  | CS(=O)(=O)c1sc(-c2ccccc2)nc1S(=O)(=O)c1ccc(F)c(F)c1 [BC19279]
 |  | > 10000 nM | 1000 to 10000 nM | COc1ccc(NS(=O)(=O)c2cc3c(cc2Cl)NC(=O)C(C)O3)cc1Cl (stereo not shown) [BC19280]
 |  | > 10000 nM | 100 to 1000 nM | CCOc1ccc(NS(=O)(=O)c2cc3c(cc2Cl)NC(=O)C(C)O3)cc1 (stereo not shown) [BC19281]
 |  | > 10000 nM | 100 to 1000 nM | CCC1Oc2cc(S(=O)(=O)Nc3cccc(C(C)=O)c3)c(Cl)cc2NC1=O (stereo not shown) [BC19282]
 |  | > 10000 nM | 100 to 1000 nM | CCc1cccc(NS(=O)(=O)c2cc3c(cc2Br)NC(=O)C(C)O3)c1 (stereo not shown) [BC19283]
 |  | > 10000 nM | < 100 nM | CC1Oc2cc(S(=O)(=O)Nc3ccc(F)c(F)c3)c(Br)cc2NC1=O (stereo not shown) [BC19284]
 |  | > 10000 nM | 1000 to 10000 nM | CC1Oc2cc(S(=O)(=O)Nc3ccc(F)cc3Cl)c(Br)cc2NC1=O (stereo not shown) [BC19285]
 |  | > 10000 nM | < 100 nM | CCC1Oc2cc(S(=O)(=O)Nc3ccc(Cl)cc3)c(Br)cc2NC1=O (stereo not shown) [BC19286]
 |  | > 10000 nM | 1000 to 10000 nM | CCC1Oc2cc(S(=O)(=O)NCc3ccccc3)c(Br)cc2NC1=O (stereo not shown) [BC19287]
 |  | > 10000 nM | < 100 nM | CCc1cccc(NS(=O)(=O)c2cc(Br)cc3c2OC(C)C(=O)N3)c1 (stereo not shown) [BC19288]
 |  | > 10000 nM | < 100 nM | CC1Oc2c(cc(Br)cc2S(=O)(=O)Nc2ccc(F)cc2Cl)NC1=O (stereo not shown) [BC19289]
 |  | > 10000 nM | < 100 nM | CCC1Oc2c(cc(Br)cc2S(=O)(=O)Nc2ccc(Cl)cc2)NC1=O (stereo not shown) [BC19290]
 |  | > 10000 nM | < 100 nM | CC1Oc2c(cc(Cl)cc2S(=O)(=O)Nc2ccccc2)NC1=O (stereo not shown) [BC19291]
 |  | > 10000 nM | < 100 nM | COc1ccc(NS(=O)(=O)c2cc(Cl)cc3c2OC(C)C(=O)N3)cc1Cl (stereo not shown) [BC19292]
 |  | > 10000 nM | 100 to 1000 nM | CC(C)NS(=O)(=O)c1cc(Cl)cc2c1OC(C)C(=O)N2 (stereo not shown) [BC19293]

IC50 (TNF release; [1]) | IC50 (NF-κB; LPS-stimulated) | IC50 (TNF release; [2]) | IC50 (NF-κB; [3]) | SMILES
 |  | > 10000 nM | 1000 to 10000 nM | CCNS(=O)(=O)c1cc(Cl)cc2c1OC(C)C(=O)N2 (stereo not shown) [BC19294]
> 10000 nM | < 100 nM |  |  | CC(=O)N1CC(=O)Nc2ccc(S(=O)(=O)N3CCCC3)cc21 [BC19295]
> 10000 nM | 1000 to 10000 nM |  |  | CC1C(=O)Nc2ccc(S(=O)(=O)N3CCCC3)cc2N1C (stereo not shown) [BC19296]
> 10000 nM | 1000 to 10000 nM |  |  | CC1C(=O)Nc2ccc(S(=O)(=O)N3CCCC3)cc2N1C(=O)N1CCOCC1 (stereo not shown) [BC19297]
> 10000 nM | < 100 nM |  |  | CC(C)NC(=O)N1c2cc(S(=O)(=O)N3CCCC3)ccc2NC(=O)C1C (stereo not shown) [BC19298]
> 10000 nM | 1000 to 10000 nM |  |  | COCCNC(=O)N1c2cc(S(=O)(=O)N3CCCC3)ccc2NC(=O)C1C (stereo not shown) [BC19299]
> 10000 nM | 100 to 1000 nM |  |  | NS(=O)(=O)c1ccc2c(c1)N1CCCC1C(=O)N2 (stereo not shown) [BC19300]
> 10000 nM | < 100 nM |  |  | Cc1nnc(-c2ccc3nc(-c4ccc(F)cc4)c(-c4ccc(F)cc4)nc3c2)n1C [BC19301]
> 10000 nM | 1000 to 10000 nM |  |  | Cn1cc(-c2ccc3nc(-c4ccc(F)cc4)c(-c4ccc(F)cc4)nc3c2)cn1 [BC19302]
> 10000 nM | > 10000 nM |  |  | COc1ncc(-c2ccc3nc(-c4ccc(F)cc4)c(-c4ccc(F)cc4)nc3c2)cc1F [BC19303]
> 10000 nM | 1000 to 10000 nM |  |  | Cc1ccncc1-c1ccc2nc(-c3ccc(F)cc3)c(-c3ccc(F)cc3)nc2c1 [BC19304]
> 10000 nM | > 10000 nM |  |  | Cn1ncc2c(-c3ccc4nc(-c5ccc(F)cc5)c(-c5ccc(F)cc5)nc4c3)cccc21 [BC19305]
> 10000 nM | 100 to 1000 nM |  |  | Fc1ccc(-c2nc3ccc(-c4nncn4CCN4CCOCC4)cc3nc2-c2ccc(F)cc2)cc1 [BC19306]
< 100 nM | 100 to 1000 nM |  |  | Cc1ccc(S(=O)(=O)c2nc3cc(C(=O)N4CCN(C)CC4)ccc3nc2-c2ccc(F)cc2)cc1F [BC19307]
< 100 nM | 100 to 1000 nM |  |  | Cc1ccc(S(=O)(=O)c2nc3cc(C(=O)N4CCN(C)CC4)ccc3nc2-c2ccc(F)cc2)cc1 [BC19308]
1000 to 10000 nM | 100 to 1000 nM |  |  | CN1CCC(C(=O)Nc2ccc3nc(-c4ccc(F)cc4)c(-c4ccc(F)cc4)nc3c2)CC1 [BC19309]
> 10000 nM | < 100 nM |  |  | CC(=O)N1CCC(C(=O)Nc2ccc3nc(-c4ccc(F)cc4)c(-c4ccc(F)cc4)nc3c2)CC1 [BC19310]
